The source of these data is article PMC7330483, “Identification of a Broad-Spectrum Viral Inhibitor Targeting a Novel Allosteric Site in the RNA-Dependent RNA Polymerases of Dengue Virus and Norovirus” (Frontiers in Microbiology, 2020).

For series [1], the target named is DENV RdRp. Also on record: method as in Noble et al., 2016. The following applies: ref Noble et al., 2016; read-out: KD DENV RdRp (literature); cited from earlier work.
Series [2] relates to hNV-RdRp. Put plainly: hNV-RdRp inhibition assay (PicoGreen dsRNA formation). Format: biochemical, Norovirus GII.4 Sydney 2012. The following applies: dose response, two-fold dilutions.
In series [3] the target is T1, DENV RdRp (Dengue virus type 3, UniProt Q6YMS4). Put plainly: DENV-RdRp inhibition assay (PicoGreen dsRNA formation). The following applies: 40 μM compound. Also on record: RdRp gens of DENV; inferred from Ni-NTA purification and the pET-21a(+) vector); made in house; host or cells: Escherichia coli BL21. Type of series: biochemical. Here is the method:
Polymerase activity was measured by detecting the formation of double-stranded RNA (dsRNA) using the fluorescent dye PicoGreen ([Singer et al., 1997]). RdRp assays were performed in a black 96-well plates, which protects reaction mixture from light. In vitro RNA synthesis assays were performed using a single-stranded RNA poly(C) as template and GTP as substrate in a 25 μL reaction mixture. 5 μL of DENV-RdRp (20 μM), dissolved in a reaction buffer containing 20 mM Tris–HCl (pH 7.4), 2.5 mM MnCl2, 5 mM DTT, was incubated with 1 μL of 1 mM compound (RAI-5, RAI-13, RAI-14, and JF-31-MG46 served as positive control) or the compound vehicle DMSO at 30°C for 10 min. Subsequently, 1 μL of 1 mg/mL poly(C) and 2 μL of 625 μM GTP were added into the mixture for 60 min at 30°C. The final concentrations of the reaction components are 4 μM DENV-RdRp, […], 50 μM GTP, 40 μM compound, 4% DMSO, […] (pH 7.4), 2.5 mM MnCl2 and 5 mM DTT. The reaction was terminated with 10 mM EDTA. After that, 175 μL of fluorescent dye PicoGreen, diluted 200-fold with TE buffer, was added to each well for 5 min at room temperature. Microplate reader was used to quantify the amount of dsRNA at standard wavelengths (excitation 480 nm, emission 520 nm).

Series [4] has as its system MNV(SH1603). Description: Infection assay with MNV in RAW264.7 cells (qRT-PCR). Format: cell-based, murine norovirus (MNV).
The test system of series [5] is DENV2 (Tr1751). Put plainly: Infection assay with DENV2 in A549 cells (qRT-PCR). Type of series: cell-based. How it is done:
5 × 10^5 per well A549 cells were seeded into 6-well plates for 24 h, and infected with DENV2 (Tr1751) at an MOI of 0.1 in the presence of RAI-13 with 2-fold dilutions (from 0.08 to 20 μM) for 4 h. The culture supernatants were replaced by Fresh medium with RAI-13 with 2-fold dilutions. Cells were harvested at 48 h.p.i. The RNA extraction kit was used to extract total RNA. The level of viral RNA was determined by qRT-PCR analysis through one-step SYBR PrimeScript RT-PCR kit ([Yi et al., 2019]). The primer pair (forward: 5′-[…]-3′ and reverse: 5′-[…]-3′) amplifies partial envelop protein E gene of DENV2. The Forward and Reverse primers were also, respectively, used for minus-strand and plus-strand RNA reverse transcription. Human glyceraldehyde-3-phosphate dehydrogenase (hGAPDH) was served as an internal control and amplified with primers 5′-ATCA[…]-3′ and 5′-[…]-3′.

Series [6] in a line: Cytotoxicity analysis (Cell Counting kit-8), RAW264.7. Type of series: cell-based. Conditions: mouse, RAW264.7 cells, CCK-8. How it is done: (§1) Twenty-four hour prior to the cytotoxicity assay, 4 × 10^4 RAW264.7 or A549 cells were seeded in 96-well plates. After that, 2-fold serial dilutions (from 0.625 to 40 μM) of RAI-13 were added to the cells. Cells treated with DMSO were served as the control. Cells were cultivated for 48 h, after that the cell viability was assessed by Cell Counting kit-8.

Series [7] concerns RAW264.7 cells. The description is as above. Type of series: cell-based. Conditions: up to 10 μM, 48 h, CCK-8. Here is the method:
as §1

The nature of series [8]: Cytotoxicity analysis (Cell Counting kit-8), A549. Format: cell-based. The following applies: human, A549 cells, CCK-8. How it is done: as §1
Series [9] has as its system A549 cells. Put plainly: Cytotoxicity analysis (Cell Counting kit-8), A549. Conditions: up to 10 μM, 48 h, CCK-8. Type of series: cell-based. How it is done: as §1
Series [10] has as its system Jc1-Gluc HCVcc. Put plainly: Infection assay with Jc-1-Gluc HCVcc in Huh7.5.1 cells. Type of series: cell-based, hepatitis C virus (HCV). Conditions: Hepatitis C virus. Here is the method:
2 × 10^4 per well Huh7.5.1 cells were seeded into 96-well plates for 24 h, and then cells were incubated with RAI-13 (1 μM) and Jc1-Gluc HCVcc at an MOI of 1 for 4 h. Next, the culture supernatants were replaced by Fresh medium with 1 μM RAI-13. After 48 h, we measured the amounts of infectious Jc1 HCVcc in the supernatant by detecting the activity of Gaussia luciferase (Gluc), using a Centro XS3 LB 960 luminometer.

Series [11] concerns Gaussia luciferase (Gluc). Description: Effect on Gluc activity in pcDNA-Gluc transfected Huh7.5.1 cells (negative control). Format: cell-based. The following applies: concentrations up to 5 μM, 48 h.
For series [12], the system named is VSV-G/HIV-Fluc. Format: cell-based, human immunodeficiency viruses type 1 (HIV-1).
For series [13] the following is noted: oral, rat; no reference given; cited from earlier work.
In series [14] the target is hNV RdRp. Put plainly: Bio-layer interferometry (BLI) binding assay, hNV RdRp. The following applies: read-out: KD hNV RdRp, 1:1 binding model, global fit.
Series [15] has as its target T1, DENV RdRp. Description: Bio-layer interferometry (BLI) binding assay, DENV RdRp.

Entries after “also recorded” stand apart in the source; their conditions may differ.

As for `COc1ccc(CC(=O)O)cc1-c1ccccc1` [JF-31-MG46, 2-(4-methoxy-3-phenyl-phenyl)ethanoic acid], the equilibrium dissociation constant (Kd) in series [1] is 210 µM.

In turn, `O=c1[nH]c2ccccc2n1C1CCN(Cc2ccc(-c3nc4cc5[nH]cnc5cc4nc3-c3ccccc3)cc2)CC1` [RAI-5, AKT inhibitor VIII] showed an IC50 in [2] of 47.3 µM. The “inhibitory effect on DENV RdRp activity” value in series [3] is listed as “no inhibitory effect”.

With `CN1CCN(c2ccc(C(=O)Nc3n[nH]c4ccc(Cc5cc(F)cc(F)c5)cc34)c(NC3CCOCC3)c2)CC1` [RAI-13, Entrectinib], the IC50 turned out to be 46.9 µM in series [2]; 2.01 µM in series [4] (Norwalk virus, RAW264.7, in abstract, read-out: IC50 inhibition of MNV infection (abstract)); 2.43 µM in series [5] (Dengue virus, DENV2, A549, read-out: IC50 inhibition of DENV2 infection (abstract)). Also, the “plus-strand and minus-strand RNA levels of MNV” value in series [4] (2.5 μM, infected RAW264.7 cells) is “inhibits the synthesis of both plus-strand and minus-strand RNA”. Besides, the EC50 in [4] (Norwalk virus, RAW264.7 cells, 48 h, MNV RNA by qRT-PCR, read-out: EC50 inhibition of MNV infection) was 2.01 µM; in [5] (Dengue virus, A549 cells, 48 h, DENV2 RNA by qRT-PCR, read-out: EC50 inhibition of DENV2 infection) it was 2.43 µM. Moreover, the “plus-strand and minus-strand RNA levels of DENV2” value in series [5] (2 μM, infected A549 cells) was “inhibits the synthesis of both plus-strand and minus-strand RNA”. The CC50 at 48 h in series [6] was determined as 13.2 µM; in [8], 20.8 µM. In addition, the “cytotoxic effect on RAW264.7 cells” value in series [7] is on record as “No cytotoxic effect; also recorded: did not observe apparent cytotoxicity”. The “cytotoxic effect on A549 cells” value in series [9] is “No cytotoxic effect; also recorded: did not observe apparent cytotoxicity”. In [10] (Huh-7.5.1, 48 h, read-out: inhibition of Jc1 HCVcc infection), the inhibition at 1 µM amounted to 95%. Also, the inhibition at 2 µM in [10] (Huh-7.5.1, read-out: inhibition of HCV infection (abstract)) was 95%. For the same compound, the “effect on Gluc activity” value in series [11] is “no inhibitory effect”. In addition, the “inhibition of HIV-1 (VSV-G/HIV-Fluc) infection” value in series [12] is listed as “did not show any inhibition effect”. Further, in [13], the LD50 result is “above 2000 mg/kg”. Further, the Kd in series [14] stood at 39.9 µM; in series [15] it was 166 µM. In addition, the “inhibitory effect on DENV RdRp activity” value in series [3] is “markedly inhibited”.

Take `Cc1ccc(NC(=O)Nc2cc(C(F)(F)F)ccc2F)cc1Nc1ccc2c(c1)NC(=O)/C2=C\c1ccc[nH]1` [RAI-14, GNF-5837]: in [2], it took 45.5 µM to reach half-maximal inhibition (IC50). For the same compound, the “inhibitory effect on DENV RdRp activity” value in [3] was “no inhibitory effect”.
